Results published in patent US11371097B2, “Articles for diagnosis of liver fibrosis” (THE GOVERNMENT OF THE UNITED STATES, as represented by THE …, priority 2015, dated 2022).
“And” between values parts separate entries of the source, which are not always exact repeats. Identical values can stand only once. Like-named read-outs stand apart in the source and are kept apart here.

Tests used:
[1] = type: in vivo, Male Sprague-Dawley rats
liver = type: in vivo, Male Sprague-Dawley rats; conditions: for Centrilobular collagenous accumulation (Masson's trichrome): 200 mg/kg/day, five-day oral administration
[2] = test system: 67 genes on the fibrosis gene panel; test: Multiplexed fibrosis gene panel (QuantiGene 2.0 Plex / Bioplex) on liver RNA
[3] = Carbon Tetrachloride 200 mg/kg, animal 54
[4] = histopathology score, individual animals, Carbon Tetrachloride 200, Bromobenzene 785, Dexamethasone 1 mg/kg
[5] = liver RNA, individual animals, Carbon Tetrachloride 200, Bromobenzene 785, Dexamethasone 1 mg/kg
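Wherever Cytoplasmic Alteration is given: Severity grades from None 0% through Minimal Mild Moderate to Marked over 80% tissue affected.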
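Wherever Inflammation is given: Severity grades from None 0% through Minimal Mild Moderate to Marked over 80% tissue affected.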
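Wherever Vacuolation is given: Severity grades from None 0% through Minimal Mild Moderate to Marked over 80% tissue affected.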

## ClC(Cl)(Cl)Cl [carbon tetrachloride]
[1]; all doses
  Body weight change: Body weight gain was less than controls at all doses
[1]; dose groups
  Body weight gain over the five experimental dosing days: decrease in body weight gain
liver
  Centrilobular collagenous accumulation (Masson's trichrome): pre-fibrogenic lesions in centrilobular region
liver; listed as Carbon tetrachloride
  Centrilobular collagenous accumulation (Masson's trichrome): caused prefibrotic centrilobular collagenous accumulation
liver; [3]
  Bile Duct Hyperplasia and Fibroplasia: 0
  Cytoplasmic Alteration: 0
  Inflammation: 0
  Necrosis: 1
  Vacuolation: 3
liver; across dose groups, five days (figure legend)
  Combined histopathological scores as percent of animals with pathology: dose-dependent increase in severe pathology
liver; exposures on the gene panel (FIG. 9 legend)
  Histopathological evidence of vacuolation and/or glycogen accumulation: correlated with histopathological evidence of vacuolation and/or glyocgen accumulation
liver; [4]
  Bile Duct Hyperplasia and Fibroplasia: 0
  Inflammation: 0
  Vacuolation: 4 and 3 (2×)
liver; low-dose (carbon tetrachloride: all doses)
  Fibrosis histopathology: without fibrosis
liver; oral gavage five days, across doses
  Vacuolation: dose-dependent increase in vacuolation indicative of lipid accumulation without evidence of fibrosis
[2]; [3]
  A2m differential expression: −3.423
  Arf6 differential expression: 0.270
  Cxcl1 differential expression: 0.190
  RT1-DMa differential expression: 0.225
[2]; [5]
  Differential Expression of A2m: −2.891 and −2.439 and −5.167
  Differential Expression of Angptl3: −0.612 and −1.071 and −0.753 and −0.775
  Differential Expression of Anxa2: 0.553 and 0.586 and 0.834 and 0.587
  Differential Expression of Apoc: −0.311 and −0.356 and −0.337 and −0.414
  Differential Expression of Arf6: 0.172 and 0.167 and 0.214
  Differential Expression of Arpc1b: 1.102 and 1.145 and 1.554 and 1.382
  Differential Expression of Arrb1: 1.846 and 2.288 and 2.226 and 1.692
  Differential Expression of C1qb: 0.268 and 0.290 and 0.085 and 0.332
  Differential Expression of CD9: −0.279 and −0.103 and 0.754 and −0.347
  Differential Expression of CD53: 0.486 and 1.094 and 1.315 and 1.262
  Differential Expression of CP: −0.227 and −0.328 and −0.317 and −0.414
  Differential Expression of Capg: 0.433 and 0.855 and 0.909 and 0.968
  Differential Expression of Ccl2: 1.671 and 1.662 and 2.378 and 1.370
  Differential Expression of Col1a1: 1.336 and 1.411 and 1.309 and 1.774
  Differential Expression of Col1a2: 0.249 and 0.458 and 0.329 and 0.672
  Differential Expression of Col4a1: −0.521 and −0.024 and −0.441 and 0.104
  Differential Expression of Col5a2: 1.411 and 2.330 and 2.442 and 2.138
  Differential Expression of Ctgf: 2.135 and 2.232 and 2.664 and 1.663
  Differential Expression of Cxcl1: −0.500 and −0.165 and −0.462
  Differential Expression of Cxcl12: 0.040 and 0.320 and 0.041 and 0.403
  Differential Expression of Cxcl16: 1.440 and 1.782 and 1.992 and 1.656
  Differential Expression of Cyba: 0.522 and 0.799 and 0.888 and 0.887
  Differential Expression of Cyp2c11: −1.357 and −3.301 and −0.339 and −0.904
  Differential Expression of Dsc2: 0.091 and −0.280 and −0.204 and −0.265
  Differential Expression of Fam102b: −0.378 and −0.140 and −0.011 and −0.240
  Differential Expression of Fam105a: 0.309 and 0.576 and 0.985 and 0.758
  Differential Expression of Fbn1: −0.149 and 0.230 and −0.294 and 0.107
  Differential Expression of Fn1: −0.120 and −0.152 and −0.364 and −0.262
  Differential Expression of Fstl1: −0.259 and 0.017 and −0.180 and 0.025
  Differential Expression of Fxyd5: 0.160 and 0.404 and 0.507 and 0.213
  Differential Expression of Gpnmb: 1.494 and 2.232 and 3.101 and 2.714
  Differential Expression of Igfals: −0.528 and −0.092 and −0.771 and −0.189
  Differential Expression of Igfbp1: 0.019 and 0.070 and 0.480 and −0.925
  Differential Expression of Igfbp2: −0.542 and 1.416 and 0.505 and −1.839
  Differential Expression of Igfbp3: −0.324 and 0.063 and −0.304 and −0.113
  Differential Expression of Itga1: 0.220 and 0.585 and 0.503 and 0.756
  Differential Expression of Itgb2: −0.115 and 0.502 and 0.455 and 0.302
  Differential Expression of Lame2: 2.323 and 2.130 and 2.338 and 1.341
  Differential Expression of Lbp: 0.594 and 0.379 and 0.665 and 0.050
  Differential Expression of Len2: −1.654 and 0.356 and 1.528 and 2.126
  Differential Expression of Lgals1: 0.936 and 0.978 and 1.986 and 1.602
  Differential Expression of Lgals3: 0.994 and 1.444 and 2.024 and 1.736
  Differential Expression of Lgals3bp: 0.391 and 0.486 and 0.360 and 0.302
  Differential Expression of Lox: −0.215 and −0.493 and 0.022 and 0.077
  Differential Expression of Lrp1: −0.329 and −0.337 and −0.524 and −0.671
  Differential Expression of Lum: 0.298 and −0.201 and 0.404 and 0.442
  Differential Expression of Mmp2: −0.062 and 0.311 and 0.610 and −0.241
  Differential Expression of Nid1: −0.021 and 0.232 and 0.186 and 0.154
  Differential Expression of Pcolce: 0.002 and 0.354 and 0.651 and −0.401
  Differential Expression of Pkm2: 0.077 and 0.586 and 0.642 and 0.663
  Differential Expression of Plat: −0.025 and −0.411 and −0.289 and −0.385
  Differential Expression of Plau: 0.039 and 0.765 and 0.947 and 0.720
  Differential Expression of Plod2: −0.129 and −0.357 and −0.045 and −0.258
  Differential Expression of RT1-DMa: 0.711 and 0.673 and 1.089
  Differential Expression of RT1-Da: 0.559 and 0.918 and 1.213 and 1.280
  Differential Expression of S100A6: −0.079 and −0.686 and 0.408 and −0.019
  Differential Expression of S100A11: 0.119 and 0.421 and 0.731 and 0.599
  Differential Expression of Serpine1: 0.309 and −0.345 and 0.467 and −0.524
  Differential Expression of Serping1: −0.712 and −0.714 and −0.546 and −0.514
  Differential Expression of Slc25a24: −0.245 and −0.511 and −0.262 and −0.615
  Differential Expression of Sod2: 0.022 and 0.009 and −0.014 and −0.116
  Differential Expression of TagIn2: 0.218 and 0.282 and 0.110 and 0.153
  Differential Expression of Tgfb1: −0.322 and 0.107 and −0.102 and −0.395
  Differential Expression of Timp1: 0.939 and 1.200 and 1.645 and 1.241
  Differential Expression of Vhl: 2.369 and 2.626 and 2.628 and 2.130
  Differential Expression of Vim: 0.044 and 0.004 and 0.348 and 0.360
  Differential Expression of Vtn: −0.291 and −0.381 and −0.494 and −0.473
[2]; liver, 67-gene panel
  Panel gene expression relative to other chemical-dose groups: mid-way between fibrosis-positive chemical-dose groups and non-fibrogenic chemical-dose groups
[2]; liver, 67 genes
  Hierarchical biclustering of log2 fold-changes in panel gene expression: clustered mid-way between non-fibrogenic and fibrogenic doses of the other fibrogenic chemicals
